Measured values as given in patent publication US20100087407A1, “USE OF AROMATASE INHIBITORS” (priority 2006, published 2010).

Columns and labels:
endometrium [1] = conditions: prior to hysteroscopic surgery; cited from earlier work
endometrium [2] = assay: Examples 1-3: endometrial thinning with loading dose and maintenance dose; type: in vivo, women; conditions: loading dose on first day, then maintenance dose for 3-6 days, any time of cycle
Procedure: Five different groups of pre-menopausal women are treated based on where there are in the menstrual cycle. Starting days (i.e., the first day of dosing) for the five groups are on Cycle Days 2-5, 6-9, 10-13, 14-17, and 18-21 for Groups 1-5, respectively.
A thin endometrium is defined as having a double-wall thickness not greater than 4 mm on transvaginal ultrasound. […] The following table summarizes the dose day and evaluation times.

endometrium [3] = conditions: small randomized study of progestogens; cited from earlier work
[4] = postmenopausal breast cancer; cited from earlier work

Structure (SMILES)	effect on endometrial thickness (endometrium [3])	also measured
C#C[C@]1(O)CC[C@H]2[C@@H]3CCC4=Cc5oncc5C[C@]4(C)[C@H]3CC[C@@]21C [danazol]		endometrial thinning (endometrium [1]): satisfactory results
CC(C)(C#N)c1cc(Cn2cncn2)cc(C(C)(C)C#N)c1 [anastrozole]		endometrial thinning prior to ablation (endometrium [2]): able to maintain a thin endometrium or to induce adequate thinning
CC(=O)O[C@]1(C(C)=O)CC[C@H]2[C@@H]3C=C(Cl)C4=CC(=O)[C@@H]5C[C@@H]5[C@]4(C)[C@H]3CC[C@@]21C [cyproterone acetate]	significant reduction	
CCC1(c2ccc(N)cc2)CCC(=O)NC1=O (stereo not drawn) [aminoglutethimide]		patients stopping treatment because of side effects (lethargy, rashes, nausea, fever) [4]: 8-15%
C#C[C@]1(O)CC[C@H]2[C@@H]3CCC4=CC(=O)CC[C@@H]4[C@H]3CC[C@@]21C [norethisterone]	no effect	
CC(=O)O[C@]1(C(C)=O)CC[C@H]2[C@@H]3C[C@H](C)C4=CC(=O)CC[C@]4(C)[C@H]3CC[C@@]21C [medroxyprogesterone acetate]	no effect	
